According to patent US20260315492A1, “5,6-FUSED BICYCLIC AMIDES AND COMPOSITIONS FOR USE AS 15-PROSTAGLANDIN DEHYDROGENASE MODULATORS” (AMGEN INC., priority 2023, published 2026):

target: T1, human recombinant 15-PGDH (Homo sapiens, UniProt P15428); assay: Inhibition of recombinant 15-PGDH enzymatic activity (NADH quantification after addition of PGE2 and NAD+); format: biochemical; conditions: recombinant 15-PGDH; 15 min pre-incubation, 60-minute reaction, room temperature, pH 7.5; PGE2 and NAD+; read-out: PGDH-Lumi IC50
T1 sequence (P15428 1-266): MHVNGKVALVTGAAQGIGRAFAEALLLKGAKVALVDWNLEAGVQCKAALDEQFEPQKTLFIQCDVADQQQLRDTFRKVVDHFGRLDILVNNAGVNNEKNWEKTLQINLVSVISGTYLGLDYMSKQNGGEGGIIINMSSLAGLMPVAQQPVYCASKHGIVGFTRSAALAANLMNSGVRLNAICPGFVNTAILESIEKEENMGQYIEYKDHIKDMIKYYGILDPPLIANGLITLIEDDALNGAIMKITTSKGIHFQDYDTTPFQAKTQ
Protocol: The compound dose-response of its inhibition of 15-PGDH activity was determined in human recombinant 15-PGDH enzymatical assays. These assays measured 15-PGDH enzymatic activity by quantifying the amount of NADH produced during a 60-minute reaction initiated by the addition of PGE2 and NAD+. Under the conditions of these experiments, the increase of NADH signal upon oxidation of PGE2 and reduction of NAD+ was linearly proportional to 15-PGDH enzymatic activity. The recombinant human, mouse, rat and dog 15-PGDH enzymatic assays were performed in a 25 μL volume of reaction buffer containing 50 mM Tris, pH 7.5, 0.01% Tween-20 and 100 μM DTT in a 384-well microtiter plate. In concentration-response experiments with tested compounds, 22 concentrations from 2-fold serial dilutions in DMSO were pre-incubated with 15-PGDH for 15 minutes at room temperature. Then, PGE2 and ß-NAD+ were added to initiate the 15-PGDH reaction. After 60 minutes at room temperature, the reaction was quenched and NADH signal was measured using a microtiter plate reader.
The following data (Table 11-1) provides the IC50 of each compound for inhibiting enzymatic activity of recombinant 15-PGDH in the assay described above.

| IC50 [nM] | Compound |
| --- | --- |
| 144 | C[C@H]1COCCN1C(=O)c1cc2ccc(-c3ccc4ncccc4c3)nc2s1 [Compound B55S, ((3S)-3-methyl-4-morpholinyl)(6-(6-quinolinyl)thieno[2,3-b]pyridin-2-yl)methanone] |
| 212 | Cn1cc2cc(-c3ccc4cc(C(=O)N5CCOCC5C#N)sc4n3)cnc2n1 (centres unmarked) [Compound B30, 4-((6-(2-methyl-2H-pyrazolo[3,4-b]pyridin-5-yl)thieno[2,3-b]pyridin-2-yl)carbonyl)-3-morpholinecarbonitrile] |
| 225 | CO[C@@H]1CCN(C(=O)c2sc3cc(-c4cnc5nn(C)cc5c4)ccc3c2C)C1 [Compound A4R, ((3R)-3-methoxy-1-pyrrolidinyl)(3-methyl-6-(2-methyl-2H-pyrazolo[3,4-b]pyridin-5-yl)-1-benzothiophen-2-yl)methanone] |
| 10.3 | C[C@H]1COCCN1C(=O)c1cc2ccc(-c3cnc4nccnc4c3)nc2s1 [Compound B57S, ((3S)-3-methyl-4-morpholinyl)(6-(pyrido[2,3-b]pyrazin-7-yl)thieno[2,3-b]pyridin-2-yl)methanone] |
| 2.6 | Cn1cc2cc(-c3ccc4cc(C(=O)N5CCOC(C(F)(F)F)C5)sc4n3)cnc2n1 (centres unmarked) [Compound B46, (6-(2-methyl-2H-pyrazolo[3,4-b]pyridin-5-yl)thieno[2,3-b]pyridin-2-yl)(2-(trifluoromethyl)-4-morpholinyl)methanone] |
| 1.24 | C[C@H]1CC(F)(F)CCN1C(=O)c1cc2ccc(-c3cnc4nn(C)cc4c3)nc2s1 (single isomer, unassigned) [Compound B27S] |
| 5.91 | O=C(c1cc2ccc(-c3cnc4nccnc4c3)nc2s1)N1CCOCC1 [Compound B56, 4-morpholinyl(6-(pyrido[2,3-b]pyrazin-7-yl)thieno[2,3-b]pyridin-2-yl)methanone] |
| 83.6 | Cn1cc2cc(-c3ccc4cc(C(=O)N5CCOCC5(C)C)sc4n3)cnc2n1 [Compound B29, (3,3-dimethyl-4-morpholinyl)(6-(2-methyl-2H-pyrazolo[3,4-b]pyridin-5-yl)thieno[2,3-b]pyridin-2-yl)methanone] |
| 16.1 | Cn1nnc2cc(-c3ccc4cc(C(=O)N5CCOCC5)sc4n3)cnc21 [Compound B54, (6-(3-methyl-3H-[1,2,3]triazolo[4,5-b]pyridin-6-yl)thieno[2,3-b]pyridin-2-yl)(4-morpholinyl)methanone] |
| 1.58 | CC(C)(C)OC(=O)N1CCN(c2ncc(-c3cc(C4CC4)c4cc(C(=O)N5CCCCC5)sc4n3)cn2)CC1 [Compound B18, 2-methyl-2-propanyl 4-(5-(4-cyclopropyl-2-(1-piperidinylcarbonyl)thieno[2,3-b]pyridin-6-yl)-2-pyrimidinyl)-1-piperazinecarboxylate] |
| 49.5 | CO[C@@H]1CCCN(C(=O)c2sc3cc(-c4cnc5nn(C)cc5c4)ccc3c2C)C1 [Compound A7R, ((3R)-3-methoxy-1-piperidinyl)(3-methyl-6-(2-methyl-2H-pyrazolo[3,4-b]pyridin-5-yl)-1-benzothiophen-2-yl)methanone] |
| 273 | Cc1c(C(=O)N2CCOC[C@H]2C)sc2cc(-c3cnc4nn(C)cc4c3)ccc12 [Compound A1R, (3-methyl-6-(2-methyl-2H-pyrazolo[3,4-b]pyridin-5-yl)-1-benzothiophen-2-yl)((3R)-3-methyl-4-morpholinyl)methanone] |
| 576 | Cn1cc(-c2ccc3cc(C(=O)N4CCOCC4)sc3n2)ccc1=O [Compound B35, 1-methyl-5-(2-(4-morpholinylcarbonyl)thieno[2,3-b]pyridin-6-yl)-2(1H)-pyridinone] |
| 1.81 | Cn1cc2cc(-c3ccc4cc(C(=O)N5CCOC6CC65)sc4n3)cnc2n1 (centres unmarked) [Compound B53, (6-(2-methyl-2H-pyrazolo[3,4-b]pyridin-5-yl)thieno[2,3-b]pyridin-2-yl)(2-oxa-5-azabicyclo[4.1.0]heptan-5-yl)methanone] |
| 0.375 | Cn1cc2cc(-c3ccc4sc(C(=O)N5CCCC(F)(F)C5)cc4n3)cnc2n1 [Compound C43, (3,3-difluoro-1-piperidinyl)(5-(2-methyl-2H-pyrazolo[3,4-b]pyridin-5-yl)thieno[3,2-b]pyridin-2-yl)methanone] |
| 623 | C[C@H]1COCCN1C(=O)c1cc2ccc(-c3ccc(=O)n(C)c3)nc2s1 [Compound B32S, 1-methyl-5-(2-(((3S)-3-methyl-4-morpholinyl)carbonyl)thieno[2,3-b]pyridin-6-yl)-2(1H)-pyridinone] |

| IC50 [nM] | Compound |
| --- | --- |
| 0.215 | Cn1cc2cc(-c3cc(C4CC4)c4cc(C(=O)N5CCCCC5)sc4n3)cnc2n1 [Compound B23, (4-cyclopropyl-6-(2-methyl-2H-pyrazolo[3,4-b]pyridin-5-yl)thieno[2,3-b]pyridin-2-yl)(1-piperidinyl)methanone] |
| 10.6 | C[C@@H]1COCCN1C(=O)c1cc2ccc(-c3cnc4nccnc4c3)nc2s1 [Compound B60R, ((3R)-3-methyl-4-morpholinyl)(6-(pyrido[2,3-b]pyrazin-7-yl)thieno[2,3-b]pyridin-2-yl)methanone] |
| 0.255 | Cn1cc2cc(-c3cc(C4CCC4)c4c(N)c(C(=O)N5CCCCC5)sc4n3)cnc2n1 [Compound B5, (3-amino-4-cyclobutyl-6-(2-methyl-2H-pyrazolo[3,4-b]pyridin-5-yl)thieno[2,3-b]pyridin-2-yl)(1-piperidinyl)methanone] |
| 217 | Cc1c(C(=O)N2CCOC[C@@H]2C)sc2cc(-c3cnc4nn(C)cc4c3)ccc12 [Compound A1S, (3-methyl-6-(2-methyl-2H-pyrazolo[3,4-b]pyridin-5-yl)-1-benzothiophen-2-yl)((3S)-3-methyl-4-morpholinyl)methanone] |
| 1.34 | CC1CN(C(=O)c2cc3ccc(-c4cnc5nn(C)cc5c4)nc3s2)CCO1 (centres unmarked) [Compound B31] |
| 200 | C[C@H]1COCCN1C(=O)c1cc2ccc(-c3cc(=O)n(C)cn3)nc2s1 [Compound B34S, 3-methyl-6-(2-(((3S)-3-methyl-4-morpholinyl)carbonyl)thieno[2,3-b]pyridin-6-yl)-4(3H)-pyrimidinone] |
| 0.519 | Cn1cc2cc(-c3cc(-c4ccnn4C)c4cc(C(=O)N5CCSCC5)sc4n3)cnc2n1 [Compound B14, (6-(2-methyl-2H-pyrazolo[3,4-b]pyridin-5-yl)-4-(1-methyl-1H-pyrazol-5-yl)thieno[2,3-b]pyridin-2-yl)(4-thiomorpholinyl)methanone] |
| 0.679 | Cn1cc2cc(-c3ccc4sc(C(=O)N5CCCCC5)c(N)c4n3)cnc2n1 [Compound C45, (3-amino-5-(2-methyl-2H-pyrazolo[3,4-b]pyridin-5-yl)thieno[3,2-b]pyridin-2-yl)(1-piperidinyl)methanone] |
| 0.352 | Cn1cc2cc(-c3ccc4cc(C(=O)N5CCC(F)(F)CC5)sc4n3)cnc2n1 [Compound B25, (4,4-difluoro-1-piperidinyl)(6-(2-methyl-2H-pyrazolo[3,4-b]pyridin-5-yl)thieno[2,3-b]pyridin-2-yl)methanone] |
| 39.2 | C[C@H]1COCCN1C(=O)c1cc2ccc(-c3cnc4c(=O)n(C)ccc4c3)nc2s1 [Compound B62S, 7-methyl-3-(2-(((3S)-3-methyl-4-morpholinyl)carbonyl)thieno[2,3-b]pyridin-6-yl)-1,7-naphthyridin-8(7H)-one] |
| 23.4 | C[C@H]1COCCN1C(=O)c1cc2ccc(-c3cnc4nn(C)nc4c3)nc2s1 [Compound B43S, ((3S)-3-methyl-4-morpholinyl)(6-(2-methyl-2H-[1,2,3]triazolo[4,5-b]pyridin-6-yl)thieno[2,3-b]pyridin-2-yl)methanone] |
| 40.3 | C[C@@H]1COCCN1C(=O)c1cc2ccc(-c3cnc4nn(C)nc4c3)nc2s1 [Compound B43R, ((3R)-3-methyl-4-morpholinyl)(6-(2-methyl-2H-[1,2,3]triazolo[4,5-b]pyridin-6-yl)thieno[2,3-b]pyridin-2-yl)methanone] |
| 46.1 | Cn1cc2cc(-c3ccc4cc(C(=O)N5CCOCC56CC6)sc4n3)cnc2n1 [Compound B45, (6-(2-methyl-2H-pyrazolo[3,4-b]pyridin-5-yl)thieno[2,3-b]pyridin-2-yl)(7-oxa-4-azaspiro[2.5]octan-4-yl)methanone] |
| 1330 | O=C(c1cc2ccc(-c3nccs3)nc2s1)N1CCOCC1 [Compound B38, 4-morpholinyl(6-(1,3-thiazol-2-yl)thieno[2,3-b]pyridin-2-yl)methanone] |
| 4400 | C[C@@H]1COCCN1C(=O)c1cc2ccc(-c3nccs3)nc2s1 [Compound B33R, ((3R)-3-methyl-4-morpholinyl)(6-(1,3-thiazol-2-yl)thieno[2,3-b]pyridin-2-yl)methanone] |
| 1.67 | Cn1cc2cc(-c3nc(C4CC4)c4sc(C(=O)N5CCOCC5)cc4n3)cnc2n1 [Compound C49, (4-cyclopropyl-2-(2-methyl-2H-pyrazolo[3,4-b]pyridin-5-yl)thieno[3,2-d]pyrimidin-6-yl)(4-morpholinyl)methanone] |
